Data on eight compounds can be found in patent US9029092B2, “Solution phase homogeneous assays” (Beckman Coulter, Inc., priority 2009, dated 2015).

The test system of assay [1] is TnI. Put plainly: Assays utilizing various SSIA in TnI assay. The note with it: for Signal/Noise S1/S0: calibrator S1; for Signal/Noise S2/S0: calibrator S2; for Signal/Noise S3/S0: calibrator S3; for Signal/Noise S4/S0: calibrator S4; for Signal/Noise S5/S0: calibrator S5; for Signal/Noise S6/S0: calibrator S6. In kind it is biochemical. As to the method: In a reaction tube, 400 uL of TnI M6 antibody-HRP conjugate at 0.5 ug/mL in buffered aqueous solution at pH. 8.0 (100 mM Tris, 150 mM NaCl, 0.1 mM EDTA, 0.2% Tween-20 and 1% BSA), 400 uL of AK1˜Dex70/31˜Streptavidin (fraction 1) 2:1 SA/Ab at 2 ug/mL Ab also in buffered aqueous solution at pH 8.0, and 400 uL of calibrator standard solution containing the TnI analyte at a known concentration. One tube was prepared for each calibrator concentration. […] Next, 25 uL of each antioxidant as a concentrated solution of 2 mM, 1 mM or 0.5 mM was pipetted into the plate wells using a repeater pipette. The plates were rotated for 10 seconds to mix and incubated between 5 to 33 minutes. Detection was performed with a SpectraMax L injection plate luminometer.

Assay [2] concerns biotinylated HRP. Put plainly: Model system for selection of SSIA (AK1/streptavidin BSA microparticles + biotinylated HRP). In kind it is biochemical, horseradish. The note with it: SSIA 100 μM final; for light intensity, BTN-HRP0: Btn-HRP 0 ng/mL; for light intensity, BTN-HRP0 / light intensity, BTN-HRP1 / light intensity, BTN-HRP10 / light intensity, BTN-HRP100 / light intensity, BTN-HRP250: total HRP 500 ng/mL; for S1/S0: Btn-HRP 1 ng/mL vs 0; for light intensity, BTN-HRP1: Btn-HRP 1 ng/mL; for S2/S0: Btn-HRP 10 ng/mL vs 0; for light intensity, BTN-HRP10: Btn-HRP 10 ng/mL; for S3/S0: Btn-HRP 100 ng/mL vs 0; for light intensity, BTN-HRP100: Btn-HRP 100 ng/mL; for S4/S0: Btn-HRP 250 ng/mL vs 0; for light intensity, BTN-HRP250: Btn-HRP 250 ng/mL. As to the method:
The model system uses a microparticle conjugated to BSA (bovine serum albumin) labeled with a […] and acridan ketenedithioacetal chemiluminescent label (AK1) as the chemiluminescent-labeled sbp, and biotinylated HRP as the activator-labeled specific binding pair. In the model system, varying amounts of Btn-HRP is added to the chemiluminescent-labeled specific binding pair at 0, 1, 10, 100 and 250 ng/mL. Additional unlabeled HRP is added to reach a total HRP of concentration of 500 ng/mL in each reaction mixture. The unlabeled HRP in combination with the activator-labeled sbp was provided to the chemiluminescent-labeled sbp microparticles to emulate sample. A compound for assessment as an SSIA was also added. This reaction mixture of the model system is then triggered by addition of trigger solution in a manner of assays of the present disclosure.
To prepare the chemiluminescent-labeled sbp on microparticles, Bovine Serum Albumin (BSA) was biotinylated with 4× molar excess of biotin-LC-sulfoNHS (Pierce Biotechnology Inc., Rockford, Ill., USA). Unbound reactants were removed via desalting or dialysis. The biotin-BSA was then reacted with a 5× molar excess of an NHS ester of acridan ketenedithioacetal AK1 in 20 mM sodium phosphate pH 7.2: DMSO 75:25, v/v) followed by desalting in the same buffer. The dual labeled (biotin and AK1) BSA was then coupled with tosyl activated M280 microparticles (Invitrogen Corporation, Carlsbad, Calif., USA) in a 0.1M borate buffer pH 9.5 at a concentration of about 20 μg of labeled BSA per mg of microparticles for 16-24 h at 40° C. After coupling the microparticles were stripped for 1 h at 40° C. with 0.2 M TRIS base, 2% SDS, pH˜11. The stripping process was repeated one additional time. Microparticles were then suspended in a 0.1% BSA/TRIS buffered saline (BSA/TBS) buffer and streptavidin (SA) was added at approximately 15 μg SA per mg microparticles. Streptavidin was mixed with the microparticles for 45-50 min at room temperature. The microparticles were then washed three times and suspended in the same BSA/TBS.
HRP, (Roche Diagnostics, Indianapolis, Ind., USA) was biotinylated with 4× molar excess of biotin-LC-sulfoNHS (Pierce Biotechnology Inc., Rockford, Ill., USA). Alternatively, 25× molar excess of biotin-PEO4-NHS may be used. Unbound reactants were removed via desalting or dialysis.
Each SSIA compound for assessment was solubilized in Buffer II at a concentration at least 10× of the working strength concentration.
25 μl of 1 mg/ml of dual-labeled (biotin and AK1) BSA M280 particles were mixed with 45 μl of working concentration SSIA in Buffer II. The assay volume brought to 85 μl by adding 15 μl of Buffer II. 15 μl of sample containing Btn-HRP:HRP at different ratios (The amount of biotinylated-HRP varied from 0, 1, 10, 100 and 250 ng/mL) was added. The reaction mixture was incubated for 30 min at 37° C., then 100 μL of trigger solution was added and the light intensity recorded. Total volume of reaction mixture, including trigger solution was 200 μL with a final concentration of 100 μM of SSIA.
The screening tests were performed using a modified DxI® Immunoassay System (Beckman Coulter, Inc. Brea, Calif.) as described above.

The mark [3] stands for this setting: SSIA final concentration 125 uM.
[4] abbreviates: SSIA final concentration 250 uM.
[5] abbreviates: SSIA final concentration 500 uM.
Where [6] appears, read: SSIA final concentration 6.25 uM.
[7] abbreviates: SSIA final concentration 12.5 uM.

Turning to `Nc1cc(C[C@H](N)C(=O)O)ccc1O` [3-Amino Tyrosine], in assay [1] (setting [3]), the “Signal/Noise S1/S0” value amounted to 1.5, the “Signal/Noise S2/S0” value was determined as 2.8, the “Signal/Noise S3/S0” value came to 9.0 and the “Signal/Noise S4/S0” value came to 32.2. Also, in assay [1] (setting [3]), the “Signal/Noise S5/S0” value came out at 234.8 and the “Signal/Noise S6/S0” value stood at 2268.7. In addition, in assay [1] (setting [4]), the “Signal/Noise S1/S0” value was found to be 1.7, the “Signal/Noise S2/S0” value was 2.7, the “Signal/Noise S3/S0” value stood at 8.1 and the “Signal/Noise S4/S0” value is 31.1. Further, in assay [1] (setting [4]), the “Signal/Noise S5/S0” value came out at 217.9 and the “Signal/Noise S6/S0” value was determined as 1772.4. In addition, in assay [1] (setting [5]), the “Signal/Noise S1/S0” value stood at 1.1, the “Signal/Noise S2/S0” value turned out to be 1.9, the “Signal/Noise S3/S0” value is given as 5.9 and the “Signal/Noise S4/S0” value was found to be 19.8. In addition, in assay [1] (setting [5]), the “Signal/Noise S5/S0” value was found to be 118.6 and the “Signal/Noise S6/S0” value was 766.3.
Regarding `NNC(=O)c1cccnc1` [Nicotinic Hydrazide], in assay [2], the “light intensity, BTN-HRP0” value is 42,260; the S1/S0 was 1.4; the “light intensity, BTN-HRP1” value was 58,356; the S2/S0 worked out at 49.8. In assay [2], the “light intensity, BTN-HRP10” value is recorded as 2,106,471; the S3/S0 turned out to be 194.2; the “light intensity, BTN-HRP100” value is on record as 8,205,320; the S4/S0 turned out to be 187.5. For the same compound, in assay [2], the “light intensity, BTN-HRP250” value is recorded as 7,923,092 and the “effectiveness as SSIA in the model system” value (shortened to “effectiveness as SSIA”) is on record as “insuffient effectiveness”.
For the compound `Oc1ccc(C=Cc2cc(O)cc(O)c2)cc1` [Resveratrol], in assay [2], the “light intensity, BTN-HRP0” value is listed as 64,051; the S1/S0 is on record as 1.3; the “light intensity, BTN-HRP1” value was 81,452; the S2/S0 worked out at 16.8. In assay [2], the “light intensity, BTN-HRP10” value was 1,073,968; the S3/S0 worked out at 92.8; the “light intensity, BTN-HRP100” value was 5,944,792; the S4/S0 turned out to be 102.4. In addition, in assay [2], the “effectiveness as SSIA” value is reported as “insuffient effectiveness”.
Turning to `COc1cc(C(=O)O)cc(OC)c1O` [Syringic Acid], in assay [2], the “light intensity, BTN-HRP0” value was 14,485; the S1/S0 is recorded as 1.6; the “light intensity, BTN-HRP1” value was 23,707; the S2/S0 was found to be 64.8. In addition, in assay [2], the “light intensity, BTN-HRP10” value is recorded as 939,372; the S3/S0 turned out to be 547.2; the “light intensity, BTN-HRP100” value was 7,927,096; the S4/S0 was found to be 658. In addition, the “light intensity, BTN-HRP250” value in assay [2] was 9,530,979.
For `CC1(C)CC(O)CC(C)(C)N1[O]` [TEMPOL], in assay [2], the “light intensity, BTN-HRP0” value was 22,621; the S1/S0 is reported as 1.5; the “light intensity, BTN-HRP1” value is 33,873; the S2/S0 is 86.8. Besides, in assay [2], the “light intensity, BTN-HRP10” value was 1,963,369; the S3/S0 came to 407.6; the “light intensity, BTN-HRP100” value is 9,220,799; the S4/S0 was 467.6. Also, in assay [2], the “light intensity, BTN-HRP250” value is reported as 10,578,104 and the “effectiveness as SSIA” value is reported as “insuffient effectiveness”.
Turning to `O=c1[nH]c(=O)c2[nH]c(=O)[nH]c2[nH]1` [Uric Acid], in assay [2], the “light intensity, BTN-HRP0” value is 5,532; the S1/S0 worked out at 1.8; the “light intensity, BTN-HRP1” value is 9,760; the S2/S0 is listed as 185.3. Also, in assay [2], the “light intensity, BTN-HRP10” value is reported as 1,025,209; the S3/S0 came out at 1574.9; the “light intensity, BTN-HRP100” value was 8,712,328; the S4/S0 turned out to be 1935.8. The “light intensity, BTN-HRP250” value in assay [2] was 10,708,733.
As for `c1ccc2c(c1)Nc1ccccc1O2` [phenoxazine], in assay [1] (setting [6]), the “Signal/Noise S1/S0” value turned out to be 1.5, the “Signal/Noise S2/S0” value was 3.1, the “Signal/Noise S3/S0” value turned out to be 8.4 and the “Signal/Noise S4/S0” value was found to be 32.1. Besides, in assay [1] (setting [6]), the “Signal/Noise S5/S0” value turned out to be 227.2 and the “Signal/Noise S6/S0” value came to 2049.8. In assay [1] (setting [7]), the “Signal/Noise S1/S0” value worked out at 1.5, the “Signal/Noise S2/S0” value was 2.3, the “Signal/Noise S3/S0” value is 6.4 and the “Signal/Noise S4/S0” value came out at 24.5. For the same compound, in assay [1] (setting [7]), the “Signal/Noise S5/S0” value amounted to 147.2 and the “Signal/Noise S6/S0” value was determined as 1116.9. Further, in assay [1] (SSIA final concentration 25 uM), the “Signal/Noise S1/S0” value is 1.3, the “Signal/Noise S2/S0” value was 1.6, the “Signal/Noise S3/S0” value turned out to be 3.7 and the “Signal/Noise S4/S0” value was determined as 12.1. In addition, in assay [1] (SSIA final concentration 25 uM), the “Signal/Noise S5/S0” value was found to be 62.8 and the “Signal/Noise S6/S0” value is recorded as 387.3.
With (+/−)-alpha-Tocopherol, in assay [2], the “light intensity, BTN-HRP0” value is recorded as 2,772; the S1/S0 is 2.3; the “light intensity, BTN-HRP1” value is reported as 6,468; the S2/S0 is 452.1. In assay [2], the “light intensity, BTN-HRP10” value is recorded as 1,253,187; the S3/S0 was found to be 3088.2; the “light intensity, BTN-HRP100” value is 8,560,469; the S4/S0 was 3473.4. In addition, the “light intensity, BTN-HRP250” value in assay [2] was 9,628,184.
